According to patent publication EP2140864A2 (H. Lundbeck A/S, priority 2001, dated 2002):

Experiments:
human 5HT6 = target: T1, human 5HT6 (Homo sapiens, UniProt P50406); experiment: Radioligand binding, 5-HT6 receptor; conditions: for Ki: Table 7, read-out: h5HT6 Ki; for selectivity ratio h5HT6: Table 8, Ki h5HT6 divided by Ki hGAL3
T1 construct: expressed in transfected cells
Description: Other 5-HT Receptors: Other serotonin receptor binding assays were performed according to published methods: rat 5HT2C receptor (Julius et al., 1988); and 5-HT6 (Monsma, et al., 1993). The binding assays using the 5-HT4 receptor were performed according to the procedures described in U.S. Patent No. 5,766,879, the disclosure of which is hereby incorporated by reference in its entirety into this application.
(§1) Binding data were analyzed using nonlinear regression and statistical techniques available in the GraphPAD Prism package (San Diego, CA). Enzymatic assay data were derived from a standard curve of reference compound data.

Human 5HT2A Receptor = target: T2, Human 5HT2A Receptor (Homo sapiens, UniProt P28223); experiment: Radioligand binding, 5HT2A receptor ([3H]ketanserin); conditions: for Ki: Table 7, read-out: h5HT2A Ki; for selectivity ratio h5HT2A: Table 8, Ki h5HT2A divided by Ki hGAL3
T2 construct: expressed in transfected cells; host or cells: COS-7 cells (pCEXV-3 vector, DEAE-dextran)
T2 sequence (P28223 whole entry): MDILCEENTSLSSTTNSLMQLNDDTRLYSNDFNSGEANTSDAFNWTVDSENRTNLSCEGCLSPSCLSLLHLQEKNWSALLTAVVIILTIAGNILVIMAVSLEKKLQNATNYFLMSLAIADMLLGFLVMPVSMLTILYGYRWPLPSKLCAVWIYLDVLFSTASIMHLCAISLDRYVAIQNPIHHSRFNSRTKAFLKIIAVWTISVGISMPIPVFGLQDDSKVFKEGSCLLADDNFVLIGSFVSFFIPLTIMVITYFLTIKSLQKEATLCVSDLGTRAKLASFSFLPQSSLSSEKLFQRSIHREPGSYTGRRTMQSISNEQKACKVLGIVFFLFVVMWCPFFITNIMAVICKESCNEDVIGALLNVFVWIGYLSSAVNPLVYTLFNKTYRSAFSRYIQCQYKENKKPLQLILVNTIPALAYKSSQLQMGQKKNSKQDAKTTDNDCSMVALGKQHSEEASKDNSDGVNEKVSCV
Description: Human 5HT2A Receptor: The coding sequence of the human 5HT2A receptor was obtained from a human brain cortex cDNA library, and cloned into the cloning site of pCEXV-3 eukaryotic expression vector. This construct was transfected into COS-7 cells by the DEAE-dextran method (Cullen, 1987). Cells were harvested after 72 hours and lysed by sonication in 5 mM Tris-HCl, 5 mM EDTA, pH 7.5. The cell lysates were subjected to centrifugation at 1000 rpm for 5 minutes at 4°C, and the supernatant was subjected to centrifugation at 30,000 x g for 20 minutes at 4°C. The pellet was suspended in 50 mM Tris-HCl buffer (pH 7.7 at room temperature) containing 10 mM MgS04, 0.5 mM EDTA, and 0.1% ascorbate. The affinity of compounds at 5HT2A receptors were determined in equilibrium competition binding assays using [^3H]ketanserin (1 nM). Nonspecific binding was defined by the addition of 10 µM mianserin. The bound radioligand was separated by filtration through GF/B filters using a cell harvester.
as §1

human 5HT1A receptor = target: T3, human 5HT1A receptor (Homo sapiens, UniProt P08908); experiment: Radioligand binding, 5-HT1A receptor (3H-8-OH-DPAT); conditions: for Ki: Table 7, read-out: h5HT1A Ki; for selectivity ratio h5HT1A: Table 8, Ki h5HT1A divided by Ki hGAL3
T3 construct: expressed in transfected cells; host or cells: COS-7 cells, transient (pCEXV-3 vector)
T3 sequence (P08908 1-422): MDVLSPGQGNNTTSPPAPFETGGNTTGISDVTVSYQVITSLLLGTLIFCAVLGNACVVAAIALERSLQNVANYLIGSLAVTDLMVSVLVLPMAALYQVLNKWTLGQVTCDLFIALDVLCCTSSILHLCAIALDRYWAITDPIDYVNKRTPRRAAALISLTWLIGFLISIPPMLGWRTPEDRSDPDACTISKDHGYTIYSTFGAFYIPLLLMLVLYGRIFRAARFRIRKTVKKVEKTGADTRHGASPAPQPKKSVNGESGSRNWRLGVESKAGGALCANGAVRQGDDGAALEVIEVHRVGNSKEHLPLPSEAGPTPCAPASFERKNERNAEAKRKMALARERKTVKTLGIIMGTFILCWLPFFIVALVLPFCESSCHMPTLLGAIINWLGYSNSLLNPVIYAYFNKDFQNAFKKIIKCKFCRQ
Description: 5-HT1A Receptor: The cDNA corresponding to the 5-HT1A receptor open reading frames and variable non-coding 5'-and 3'-regions, was cloned into the eukaryotic expression vector pCEXV-3. These constructs were transfected transiently into COS-7 cells by the DEAE-dextran method (Cullen, 1987), and harvested after 72 hours. Radioligand binding assays were performed as described above for the 5-HT2A receptor, except that ^3H-8-OH-DPAT was used as the radioligand and nonspecific binding was determined by the addition of 10 µM mianserin.
as §1

human 5HT1D = target: T4, human 5HT1D (Homo sapiens, UniProt P28221); experiment: Radioligand binding, 5HT1D receptor ([3H]-serotonin); conditions: for Ki: Table 7, read-out: h5HT1D Ki; for selectivity ratio h5HT1D: Table 8, Ki h5HT1D divided by Ki hGAL3
T4 construct: expressed in transfected cells
T4 sequence (P28221 whole entry): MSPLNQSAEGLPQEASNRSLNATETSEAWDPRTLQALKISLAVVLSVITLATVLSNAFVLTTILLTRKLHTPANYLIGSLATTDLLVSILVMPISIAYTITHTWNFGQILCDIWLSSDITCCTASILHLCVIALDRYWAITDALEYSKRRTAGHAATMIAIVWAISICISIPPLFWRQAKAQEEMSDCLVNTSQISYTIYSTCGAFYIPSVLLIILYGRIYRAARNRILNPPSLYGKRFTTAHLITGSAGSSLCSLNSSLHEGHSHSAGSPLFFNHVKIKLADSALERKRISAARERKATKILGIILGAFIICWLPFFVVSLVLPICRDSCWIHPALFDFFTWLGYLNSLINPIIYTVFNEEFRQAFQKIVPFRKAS
Description: (§2) Human 5HT1B, 5HT1D, 5HT1E, 5HT1F, and 5HT7 Receptors: The cell lysates of LM(tk-) clonal cell line stably transfected with the genes encoding each of these 5HT receptor-subtypes were prepared as described above. Cell membranes were suspended in 50mM Tris-HCl buffer (pH 7.4 at 37°C) containing 10 mM MgCl2, 0.2 mM EDTA, 10 µM pargyline, and 0.1% ascorbate. […] Nonspecific binding was determined in the presence of 10 µM serotonin. The bound radioligand was separated by filtration through GF/B filters using a cell harvester.
as §1

human dopamine D4 = target: T5, human dopamine D4 (Homo sapiens, UniProt P21917); experiment: Radioligand binding, dopamine D4 receptor; conditions: for Ki: Table 9, read-out: hD4 Ki; for selectivity ratio hD4: Table 10, Ki hD4 divided by Ki hGAL3
T5 construct: purchased BioSignal, Inc. (Montreal, Canada)
T5 sequence (P21917 1-419): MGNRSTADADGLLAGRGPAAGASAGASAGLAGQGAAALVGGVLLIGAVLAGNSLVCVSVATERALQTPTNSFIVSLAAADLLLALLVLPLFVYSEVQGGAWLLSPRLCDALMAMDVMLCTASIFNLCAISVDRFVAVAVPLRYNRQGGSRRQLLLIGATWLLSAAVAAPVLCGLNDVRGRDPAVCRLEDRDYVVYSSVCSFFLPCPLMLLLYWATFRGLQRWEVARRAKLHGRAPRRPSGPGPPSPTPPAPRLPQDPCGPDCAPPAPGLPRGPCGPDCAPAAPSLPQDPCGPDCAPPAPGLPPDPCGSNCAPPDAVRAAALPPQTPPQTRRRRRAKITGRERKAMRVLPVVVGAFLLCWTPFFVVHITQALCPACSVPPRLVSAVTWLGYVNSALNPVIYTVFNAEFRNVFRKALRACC
From the text: Other receptors: Cell membranes expressing human dopamine D1, D2, D4 and rat D3 receptors were purchased through BioSignal, Inc. (Montreal, Canada). Binding assays using the histamine H1 receptor; dopamine receptors; and α1A, α1E, and α2 adrenergic receptors may be carried out according to the procedures described in U.S. Patent No. 5,780,485, the disclosure of which is hereby incorporated by reference in its entirety into this application. Binding assays using the dopamine D5 receptor may be carried out according to the procedures described in U.S. Patent No. 5,882,855, the disclosure of which is hereby incorporated by reference in its entirety into this application. Binding assays for the human α1D adrenergic receptor may be carried out according to the procedures described in U.S. Patent No. 6,156,518, the disclosure of which is hereby incorporated by reference in its entirety into this application.
as §1

human 5HT1E = target: T6, human 5HT1E (Homo sapiens, UniProt P28566); experiment: Radioligand binding, 5HT1E receptor ([3H]-serotonin); conditions: for Ki: Table 7, read-out: h5HT1E Ki; for selectivity ratio h5HT1E: Table 8, Ki h5HT1E divided by Ki hGAL3
T6 construct: expressed in transfected cells
T6 sequence (P28566 whole entry): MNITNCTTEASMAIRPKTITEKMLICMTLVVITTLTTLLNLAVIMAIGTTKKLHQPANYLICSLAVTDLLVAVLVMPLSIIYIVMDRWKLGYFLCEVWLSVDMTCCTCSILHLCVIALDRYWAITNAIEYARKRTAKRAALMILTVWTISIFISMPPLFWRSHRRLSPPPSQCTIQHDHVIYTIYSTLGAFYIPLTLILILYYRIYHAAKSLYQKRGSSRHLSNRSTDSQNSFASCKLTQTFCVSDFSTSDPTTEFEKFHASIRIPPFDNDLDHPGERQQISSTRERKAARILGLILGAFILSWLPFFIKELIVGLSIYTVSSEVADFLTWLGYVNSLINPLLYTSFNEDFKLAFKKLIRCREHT
Description: as §2, §1

T1 sequence (P50406 whole entry): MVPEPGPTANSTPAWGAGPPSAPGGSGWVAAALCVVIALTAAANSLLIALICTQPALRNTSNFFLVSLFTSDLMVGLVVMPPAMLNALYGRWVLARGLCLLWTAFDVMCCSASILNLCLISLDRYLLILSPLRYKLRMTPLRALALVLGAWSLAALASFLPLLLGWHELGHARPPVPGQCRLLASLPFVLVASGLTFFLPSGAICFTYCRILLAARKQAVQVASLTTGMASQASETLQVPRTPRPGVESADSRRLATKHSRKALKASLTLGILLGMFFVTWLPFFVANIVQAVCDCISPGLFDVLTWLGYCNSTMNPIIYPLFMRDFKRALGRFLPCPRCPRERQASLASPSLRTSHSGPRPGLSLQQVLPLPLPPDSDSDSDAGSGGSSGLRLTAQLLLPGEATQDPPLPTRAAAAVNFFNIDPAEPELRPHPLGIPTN

SMILES: CN(CCc1c[nH]c2ccccc12)c1nc(Nc2ccc(F)c(F)c2)cc(N2CCCCC2)n1 [Example 15]
- Ki (human 5HT6): 1.46 µM
- selectivity ratio h5HT6 (human 5HT6): 20
- Ki (Human 5HT2A Receptor): 11.3 µM
- selectivity ratio h5HT2A (Human 5HT2A Receptor): >100
- Ki (human 5HT1A receptor): 5.1 µM
- selectivity ratio h5HT1A (human 5HT1A receptor): >30
- Ki (human 5HT1D): 1.27 µM
- selectivity ratio h5HT1D (human 5HT1D): 17
- Ki (human dopamine D4): 13.2 µM
- selectivity ratio hD4 (human dopamine D4): >30
- Ki (human 5HT1E): 11 µM
- selectivity ratio h5HT1E (human 5HT1E): >100

SMILES: Cc1ccc(Nc2cc(N(C)C)nc(N(C)CCc3c[nH]c4ccccc34)n2)cc1 [Example 77]
- Ki (human 5HT6): 0.503 µM
- selectivity ratio h5HT6 (human 5HT6): 6
- Ki (Human 5HT2A Receptor): 2.24 µM
- selectivity ratio h5HT2A (Human 5HT2A Receptor): 28
- Ki (human 5HT1A receptor): 5.47 µM
- selectivity ratio h5HT1A (human 5HT1A receptor): >30
- Ki (human 5HT1D): 0.716 µM
- selectivity ratio h5HT1D (human 5HT1D): 9
- Ki (human dopamine D4): 0.504 µM
- selectivity ratio hD4 (human dopamine D4): 6
- Ki (human 5HT1E): 5.89 µM
- selectivity ratio h5HT1E (human 5HT1E): >30
